“And” between values parts separate entries of the source, which are not always exact repeats. Equal values may be shown once. Read-outs that look alike come from different tables or passages of the source.
What was measured:
Format in all cases: cell-based, Escherichia coli
EKO-35 acrBD408A = settings: EKO-35 acrBD408A
Procedure: (§1) Synergy measurement using checkerboard analysis was performed in 96-well microtiter plates using the microdilution broth method, according to CLSI guidelines (Patel J. B., 2015). The cell inocula were prepared using the colony resuspension method. The minimum inhibitory concentrations (MICs) were defined as the lowest concentration that provided no growth, as determined by measurement of the OD600nm using a Synergy H1 microplate reader (BioTek). Susceptibility testing was performed in MHB II with a final volume of 100 μL. PAI3N (Bachem Americas) was solubilized in MHB II. […] Solvent controls were included in each plate.
(§2) The Fractional Inhibitory Concentration Index (FICI) was used to assess the synergy of PAI3N in combination with different antibiotics. The FICI represents the ΣFIC of each drug. The FICI for each drug was calculated using the following formula: FICI=FICA+FICB=(CA/MICA)+(CB/MICB). Where MICA and MICB are the MICs of drugs A (PAI3N/NMP) and B (antibiotic) alone, and CA and CB are the MICs of the drugs in combination. The effects of PAβN or NMP in combination with antibiotics were classified as: synergistic (FICI<0.5), additive (FICI>0.5-1.0), indifferent (FICI>1.0-2.0), and antagonistic (FICI>2.0). Fold increases in resistance provided by efflux pumps were calculated by dividing the MIC values of strains expressing efflux pumps by the MIC value of EKO-35.

EKO-35 = tested on: EKO-35
Procedure: as §1, §2

wild-type E. coli K-12 = settings: K-12
Procedure: as §1, §2

ΔtolC-Pore = tested on: ΔtolC-Pore
Procedure: as §1, §2

ΔtolC = settings: ΔtolC
Procedure: as §1, §2

[1] = tested on: EKO-35 strains producing different efflux pumps (EKO-35 araC::X); assay: Checkerboard synergy (FICI) of PAβN or NMP with antibiotics
Procedure: as §1, §2

[2] = tested on: EKO-35 porinated strain expressing acrB; assay: Checkerboard synergy (FICI), porinated strain; settings: EKO-35 acrB Pore
Procedure: as §1, §2

[3] = tested on: EKO-35 porinated strain expressing acrD; assay: Checkerboard synergy (FICI), porinated strain; settings: EKO-35 acrD Pore; NMP alone, one value per checkerboard
Procedure: as §1, §2

[4] = tested on: EKO-35 porinated strain expressing acrF (AcrEF); assay: Checkerboard synergy (FICI), porinated strain; settings: EKO-35 acrEF Pore; with Fusidic Acid
Procedure: as §1, §2

[5] = tested on: EKO-35-Pore acrBD408A (functionally inactive AcrB variant); assay: Checkerboard synergy (FICI), porinated strain; settings: EKO-35 acrBD408A Pore; with Ciprofloxacin
Procedure: as §1, §2

[6] = tested on: EKO-35-Pore expressing the P. aeruginosa pump mexCD; assay: Checkerboard synergy (FICI), porinated strain; settings: EKO-35 mexCD Pore; with Erythromycin
Procedure: as §1, §2

[7] = tested on: EKO-35-Pore strains producing other efflux pumps; assay: Checkerboard synergy (FICI), porinated strain; settings: EKO-35 mdtEF Pore; NMP alone, one value per checkerboard
Procedure: as §1, §2

EKO-35-Pore = assay: Checkerboard synergy (FICI), porinated strain; settings: EKO-35 Pore; with Ethidium Bromide
Procedure: as §1, §2

wild-type K-12-Pore = assay: Checkerboard synergy (FICI), porinated strain; settings: K-12 Pore
Procedure: as §1, §2

c1ccc2c(CN3CCNCC3)cccc2c1 [NMP, 1-(1-naphthylmethyl)-piperazine]
1024 µg/mL: NMP MICa Combined (EKO-35 acrBD408A; with Oxacillin)
4 µg/mL: NMP MICa Combined [5] | NMP MICa Combined (EKO-35-Pore)
8 µg/mL: NMP MICa Combined (EKO-35 acrBD408A; with Linezolid) | NMP MICa Combined (ΔtolC; with Oxacillin) | NMP MICa Combined ([1]; EKO-35 acrB, with Erythromycin) | NMP MICa Combined (wild-type K-12-Pore; with Oxacillin)
256 µg/mL: NMP MICa Combined (EKO-35; EKO-35, with Erythromycin) | NMP MICa Combined (EKO-35; EKO-35, with Fusidic Acid) | NMP MICa Combined (EKO-35; EKO-35, with Oxacillin) | NMP MICa Combined (wild-type E. coli K-12; with Fusidic Acid) | NMP MICa Combined (ΔtolC-Pore; ΔtolC Pore, with Erythromycin) | NMP MICa Combined (ΔtolC-Pore; ΔtolC Pore, with Linezolid) | NMP MICa Combined (ΔtolC-Pore; δtolC Pore, with Ciprofloxacin) | NMP MICa Combined (ΔtolC; with Fusidic Acid) | NMP MICa Alone [3] | NMP MICa Alone [7]
16 µg/mL: NMP MICa Combined (EKO-35; EKO-35, with Linezolid) | NMP MICa Combined (ΔtolC-Pore; δtolC Pore, with Oxacillin) | NMP MICa Combined ([1]; EKO-35 mexCD, with Erythromycin)
32 µg/mL: NMP MICa Combined (ΔtolC; with Ethidium Bromide) | NMP MICa Combined ([2]; with Ethidium Bromide)
512 µg/mL and 1024 µg/mL: NMP MICa Alone (EKO-35; EKO-35, NMP alone, one value per checkerboard)
128 µg/mL: NMP MICa Combined (wild-type E. coli K-12; with Ciprofloxacin) | NMP MICa Combined (wild-type E. coli K-12; with Erythromycin) | NMP MICa Combined (wild-type E. coli K-12; with Linezolid) | NMP MICa Combined (ΔtolC-Pore; ΔtolC Pore, with Ethidium Bromide) | NMP MICa Combined (ΔtolC-Pore; δtolC Pore, with Fusidic Acid) | NMP MICa Combined (ΔtolC; with Erythromycin)
comparable to the wild-type strain: susceptibility to the efflux pump inhibitor alone, efflux-deficient strains vs wild-type (EKO-35; efflux-deficient strains EKO-35, EKO-35 acrBD408A, ΔtolC)
64 µg/mL: NMP MICa Combined (EKO-35 acrBD408A; with Ciprofloxacin) | NMP MICa Combined (wild-type E. coli K-12; with Ethidium Bromide) | NMP MICa Combined (wild-type E. coli K-12; with Oxacillin) | NMP MICa Combined ([1]; EKO-35 acrB, with Linezolid) | NMP MICa Combined ([1]; EKO-35 acrEF, with Ciprofloxacin) | NMP MICa Combined ([1]; EKO-35 acrEF, with Oxacillin) | NMP MICa Combined ([1]; EKO-35 mdtEF, with Erythromycin) | NMP MICa Combined ([2]; with Linezolid) | NMP MICa Combined [4] | NMP MICa Combined [6] | NMP MICa Combined (wild-type K-12-Pore; with Linezolid)
512 µg/mL: NMP MICa Combined (EKO-35; EKO-35, with Ciprofloxacin) | NMP MICa Combined (EKO-35; EKO-35, with Ethidium Bromide) | NMP MICa Alone (ΔtolC-Pore; ΔtolC Pore, NMP alone, one value per checkerboard) | NMP MICa Combined (ΔtolC; with Ciprofloxacin) | NMP MICa Combined (ΔtolC; with Linezolid)
